“And” between values parts separate entries of the source, which are not always exact repeats. Equal values may be shown once. Read-outs that look alike come from different tables or passages of the source.
Tests used:
Conditions in all cases: in vivo
[1] = tested on: kidney beans; set-up: species or system kidney bean
[2] = tested on: cotton plants; set-up: species or system cotton (Gossypium hirsutum)
[3] = tested on: kidney beans; set-up: species or system kidney bean; remark: listed apart in the source
[4] = tested on: cotton plants; set-up: species or system cotton (Gossypium hirsutum); remark: listed apart in the source
[5] = tested on: red kidney bean plants
[6] = tested on: cotton plants; set-up: species or system cotton (Gossypium hirsutum); remark: listed apart in the source
[7] = tested on: cotton plants; set-up: species or system cotton (Gossypium hirsutum); remark: listed apart in the source
[8] = tested on: red kidney bean plants; remark: listed apart in the source
[9] = tested on: potato plants

CCOC(=O)/C(Cl)=C/c1cc(N2C(=O)C3=C(CCCC3)C2=O)ccc1Cl [BAS 123W, cinidon-ethyl]
% Regrowth at 21 DAT [1]: 124% and 110% and 73% | regrowth [1]: tended to promote regrowth

C/C(=N\NC(=O)Nc1cc(F)cc(F)c1)c1ncccc1C(=O)O [DFP, diflufenzopyr]
% Regrowth Avg. [2]: 7% and 6% | % Defoliation 15 DAT [3]: 59% | % Defoliation [4]: 23% and 40% and 39% and 21% | regrowth [1]: reduced regrowth as compared to the untreated check

O=P(O)(O)CCCl [ETP, (2-chloroethyl)phosphonic acid]
% Defoliation [5]: 18% and 20% | % Defoliation [6]: 31% and 49% | % Regrowth 20 DAT [7]: 36.3% | % Regrowth Avg. [2]: 51% | % Defoliation 15 DAT [3]: 28% | % Defoliation [4]: 58% and 78% | % Regrowth [8]: 10%

C[n+]1ccc(-c2cc[n+](C)cc2)cc1 [Paraquat, paraquat]
Percent Defoliation [9]: 76% and 44%
